Source: patent US10561761B2, “Polymer metal-organic framework composites” (Northwestern University, priority 2014, dated 2020)
Like-named read-outs stand apart in the source and are kept apart here.

Tests used:
HDF cells [1] = experiment: Apoptosis assay (Annexin V/PI flow cytometry), HDF; conditions: Cu 0.5 mmol/L, 24 h
Protocol: (§2) HEKa and HDF cells seeded in 12-well plates (4×10^4 cells/well) were incubated with PPCN, CuSO4, PCuSO4, CMOF or PCMOF (Cu: 0.5 mmol/L) for 24 h. Cells were harvested, washed twice with ice-cold PBS, stained with Alexa Fluor 488 conjugated Annexin V and PI for 15 min at room temperature in dark, and then analyzed by flow cytometry.

HEKa cells [2] = experiment: Apoptosis assay (Annexin V/PI flow cytometry), HEKa; conditions: Cu 0.5 mmol/L, 24 h
Protocol: as §2

HDF cells [3] = experiment: MTT cytotoxicity assay, HDF; conditions: 48 h
Protocol: (§3) HEKa and HDF cells seeded in 96-well plates (5×10^3 cells/well) were incubated with a series of concentrations of PPCN, CuSO4, PCuSO4, CMOF or PCMOF for 48 h. Then, MTT solution was added to each well to a concentration of 0.5 mg/mL and incubated for an additional 4 h. After that, the medium was removed and 100 μL of dimethyl sulfoxide was added to dissolve crystals formed by living cells. Absorbance at 570 nm was measured using a microplate reader. Cell viability was expressed as a percentage of the absorbance to that of the control experiment without treatment.

HDF cells [4] = experiment: Scratch assay (cell migration), HDF; assay type: cell-based, human; conditions: 54 hrs, Cu 1×10^−3 mmol/L
Protocol: (§1) HEKa and HDF cells were seeded in 24-well plates (2×10^4 cells/well) and allowed to form a confluent monolayer. After starvation with FBS-free medium for 24 h, the cell monolayer was scratched in a straightline using 200 μL pipette tip to mimic an incisional wound. […] At desired time intervals, cells were photographed and cell migration rate was calculated using the formula shown as below: […]

[5] = ABTS free radical scavenging assay; assay type: biochemical; conditions: within 48 hrs, 37° C.
Protocol: The ability of PCMOF to scavenge the free radical cation, 2,2′-azino-bis(3-ethylbenzthiazoline-6-sulfonic acid) (ABTS) was assessed. […] A stock solution of 7 mM ABTS and 2.45 mM sodium persulfate in MQ water was prepared and left overnight in the dark at room temperature, after which the solution was sequentially filtered with 0.45 μm filter. […] At each time point, ABTS solution was sampled, diluted with MQ water 1:8 and the absorbance measured at 734 nm. All measurements were performed in triplicate. The antiradical activity was measured as % inhibition of free radicals by measuring the decrease in absorbance compared to PBS solutions at different time points.

HEKa cells [6] = experiment: Scratch assay (cell migration), HEKa; assay type: cell-based, human; conditions: Cu 1×10^−3 mmol/L
Protocol: as §1

HEKa cells [7] = experiment: MTT cytotoxicity assay, HEKa; conditions: 48 h
Protocol: as §3

HEKa cells [8] = system: HEKa cells
Protocol: as §3

HDF cells [9] = system: HDF cells
Protocol: as §3

Molecule	cell apoptosis (HDF cells [1])	cell apoptosis (HEKa cells [2])	cytotoxicity (MTT) (HDF cells [3])	wound closure rate (HDF cells [4])	ABTS radicals scavenged [5]	effect on wound closure versus blank (HEKa cells [6]; 8 h)	wound closure rate (HEKa cells [6]; 30 hrs)	cytotoxicity (MTT) (HEKa cells [7])	cytotoxicity (MTT) (HEKa cells [8])	cytotoxicity (MTT) (HDF cells [9])
O=S(=O)([O-])[O-].[Cu+2] [CuSO4, Copper sulfate]	97.84%	78.79%	increased with increasing concentrations	34.15%	didn't present a free radical scavenging effect	significant increase	56.73%	increased with increasing concentrations		
poly(polyethyleneglycol citrate-co-N-isopropylacrylamide) [PPCN]									not toxic	not toxic
